Test results reported in PubChem BioAssay AID179 (DTP/NCI, 2004).
Values joined by “and” are separate entries in the source; they are usually repeats but may differ in a detail not shown here. Identical values can stand only once. Active and inactive are the calls of the source.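 The calls were made as follows: active = compounds giving half or more protection of infected cells from virus-caused growth loss, again on retest; inactive = the rest.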 Where a SMILES comes first, the peptide text is derived from it. [ ]: non-standard residue; d: D form. The star is where a group is joined. ξ: configuration not given here. ξF = NC(Cc1ccccc1)C(=O)O; Cbz = O=C(OCc1ccccc1)*; Aib = CC(C)(N)C(=O)O; NHNH2 = NN*

System: CEM cells HIV-1 protection, formazan growth assay
Assay: NCI AIDS Antiviral Assay
Settings: for IC50: measured here: growth of uninfected CEM cells
Outline: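 CEM (human) cells, HIV-1 infected vs uninfected, 5-point dosing, formazan growth read-out. Retest threshold 50% protection.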

Compound | EC50 | IC50 | outcome
COC(=O)/C=C/c1ccc2c(c1)CCC2 | > 200 µM | 6.92 µM | –
CC(C)c1cc[n+](/C(C(=S)Nc2cccc(Cl)c2)=C(/[O-])c2ccc([N+](=O)[O-])cc2)cc1 | > 200 µM | 69.2 µM | –
CSCC1CC(c2ccc(Cl)cc2)=NO1 (stereo unspecified) | > 107 µM | > 107 µM | –
O=C(CSc1nnc(-c2ccc(N=Cc3ccc(Cl)cc3)cc2)o1)Nc1ccccc1[N+](=O)[O-] | > 20.4 µM | > 20.4 µM | –
CC(C)N(C(=O)C12C3C4C1C1C2C3C41C(O)C(C)(C)C)C(C)C (stereo unspecified) | 3.02 µM | 12 µM | –
CCOC(=O)C1(N)CC1 | > 200 µM | > 200 µM | –
CCC1=CC2CC(C(=O)OC)C1(N(C)C)C2=O (stereo unspecified) | – | – | inactive
O=c1oc2ccccc2c(O)c1Oc1ccccc1 | > 200 µM | 195 µM | –
CCC[N+]12CC=C(CO)C1C(O)CC2 (stereo unspecified) | > 891 µM | > 891 µM | –
Nc1ccc2cc(S(=O)(=O)O)c(N=Nc3ccc(-c4ccc(N=Nc5c(S(=O)(=O)O)cc6cc(S(=O)(=O)O)c(N=Nc7cccc([N+](=O)[O-])c7)c(N)c6c5O)cc4)cc3)c(O)c2c1 | – | – | active
O=[N+]([O-])c1ccc(NN=C2CN3CCN(C2)c2ccccc23)c([N+](=O)[O-])c1 | > 200 µM | 162 µM | –
CC1NOC(=O)C1N=Nc1ccccc1Cl (stereo unspecified) | > 151 µM | 70.8 µM | –
CCN(CC)C(=O)CCCCCCCCC1CO1 (stereo unspecified) | > 200 µM | 115 µM | –
CCOC(=O)/N=N/C(C)(C)OC(C)=O | > 200 µM | > 200 µM | –
CC(C)(C)OC(=O)NCCCCC(N)C(N)=O (stereo unspecified) | > 200 µM | > 200 µM | –
CC1OC(O[C@H]2/C=C/C=C/C=C/C=C/C=C/C=C/C=C/[C@H](C)[C@@H](O)[C@@H](C)[C@H](C)OC(=O)C[C@H](O)C[C@H](O)CC[C@@H](O)[C@H](O)C[C@H](O)C[C@]3(O)C[C@H](O)[C@@H](C(=O)O)[C@H](C2)O3)C(O)C(N)C1O (stereo partly specified) | > 4.9 µM | – | –
N#C/C(C(=O)Nc1ccccc1)=C(/N)N1CCOCC1 | > 200 µM | > 200 µM | –
Clc1ccc(NN(c2ccccc2)c2ccc(Cl)cc2)cc1 | > 200 µM | 115 µM | –
CCCCCCCCCc1c(O)c(O)c(CCCCCCCCC)c(CCCCCCCCC)c1CCCCCCCCC | > 100 µM | 16.6 µM | –
CC(=O)/C(=C\c1ccco1)C(=O)Nc1ccccc1 | > 74.1 µM | > 74.1 µM | –
CCOC(=O)C1=C(C)NC(CO)=C(C(=O)OCC)C1c1cccc([N+](=O)[O-])c1 (stereo unspecified) | > 2 µM | 0.355 µM | –
O=C(O)CCC1(CCC(=O)O)CCCCCCCCC(CCC(=O)O)(CCC(=O)O)C(=O)C1=O | > 200 µM | > 200 µM | –

Compound | EC50 | IC50 | outcome
NC1=NC2=c3ccccc3=C(c3cnccn3)C2(c2cnccn2)c2ccccc21 (stereo unspecified) | > 93.3 µM | 70.8 µM | –
c1cnc2c(c1)Nc1cnncc1S2 | > 200 µM | > 200 µM | –
O=C1c2c(O)cccc2Cc2cc(CO)cc(O)c21 | > 200 µM | 0.933 µM | –
COc1cccc(C2SC(N)=Nc3c2c(C)nn3C(=O)Cc2ccccc2)c1 (stereo unspecified) | 79.4 µM | 129 µM | –
O=C(/C=C/c1ccc(Cl)c(Cl)c1)c1ccc(F)cc1 | > 1.86 µM | > 1.86 µM | –
O=C1OC(c2ccc(Cl)cc2)(c2ccc(Cl)cc2)c2c1ccc1ccccc21 | – | – | inactive
S=c1cc(-c2ccc3c(c2)OCO3)s[nH]1 | > 200 µM | 162 µM | –
N#CC1(C#N)C(C#N)(C#N)C12CCCCC2 | > 20 µM | 10 µM | –
NC(=S)NNC(=S)NC(=O)c1ccco1 | > 200 µM | > 200 µM | –
COc1ccc(/C=C2\CCC(C)C3=C2N=c2s/c(=C/c4cccc(Br)c4)c(=O)n2C3c2ccc(OC)c(OC)c2)cc1OC (stereo unspecified) | > 50.1 µM | > 50.1 µM | –
O=[N+]([O-])c1ccc2c([N+](=O)[O-])ccc3c2c1CC3 | > 200 µM | 21.9 µM | –
N#C/C=C/c1ccc2ccccc2c1 | > 40.7 µM | > 40.7 µM | –
O=C(O)c1cccc(Sc2ccccc2)c1 | > 407 µM | 251 µM | –
COCN1CCC2N(COC)CCC3N(COC)CCC1N23 (stereo unspecified) | – | – | inactive
NC(=O)CN1CCN(CCCN2c3ccccc3Sc3ccc(Cl)cc32)CC1 | > 200 µM | 30.9 µM | –
N#Cc1cccc(/C=C2\Cc3ccccc3C2=O)c1 | > 5.89 µM | > 5.89 µM | –
C[C@]12C=CC(=O)C=C1[C@@H](F)C[C@H]1[C@@H]3CC[C@](O)(C(=O)CO)[C@@]3(C)C[C@H](O)[C@@]12F | – | – | inactive
COC(=O)c1cc(OC)c(OC)c(OC)c1-c1cc2c(cc1C=O)OCO2 | > 132 µM | 120 µM | –
COc1cccc(C2=NC(C(C)(C)C)CO2)c1-c1ccccc1C1OCCO1 (stereo unspecified) | > 339 µM | > 339 µM | –
CN(/N=C/c1ccccn1)C1=NCCCN1 | > 200 µM | > 200 µM | –
CC1CCC2(OCCO2)[C@]2(C)CC(O)C(=O)C=C12 (stereo partly specified) | – | – | inactive
O=C(Nc1nc(=S)c2c(ncn2CCO)[nH]1)c1ccccc1 | > 575 µM | 28.2 µM | –

Compound | EC50 | IC50 | outcome
Nc1nc(Cl)n2nc[n+](C3C=CC(=O)CC3)c2n1 (stereo unspecified) | – | – | inactive
CSc1nc2nc(C)c(C)nc2c(=O)[nH]1 | > 1120 µM | > 1120 µM | –
C=C1CC2CC(=O)C(O)C(C1)C2 (stereo unspecified) | > 200 µM | > 200 µM | –
Cc1ccnc(NS(=O)(=O)c2ccc(NC(=O)c3ccccc3SC(=O)CCCC[n+]3ccccc3)cc2)n1 | 15.1 µM | 102 µM | –
CCCCn1c(-c2ccccc2)cs/c1=N\N=C1C=C(C(C)(C)C)C(=O)C(C(C)(C)C)=C1 | > 15.8 µM | > 15.8 µM | –
Cc1ccc(C(=O)N2c3ccccc3N(C)n3cccc3C2CC(=O)O)cc1 (stereo unspecified) | > 661 µM | 148 µM | –
COc1ccc2nccc(NCCCN3CCN(CCCNc4ccnc5ccc(OC)cc45)CC3)c2c1 | > 0.537 µM | 0.105 µM | –
Cc1ccc2c(c1C)CC1(Cc3ccc(C)c(C)c3C1=O)C2=O (stereo unspecified) | > 100 µM | > 100 µM | –
Cc1nc(Nc2ccccc2Cl)sc1C(=O)CC(=O)C(N)=O | > 200 µM | > 200 µM | –
CCO/C=N\c1c(C#N)c(-c2ccc(Cl)cc2)cn1-c1ccc(C)cc1 | > 200 µM | 25.1 µM | –
CC1=NC(c2ccccc2)(C2(c3ccccc3)C(c3ccccc3)=C2c2ccccc2)C(=O)O1 (stereo unspecified) | > 6.17 µM | > 6.17 µM | –
COC(=O)c1ccc(C)cc1C1CN=NC12Cc1cc(C)ccc1C2=O (stereo unspecified) | > 200 µM | 9.77 µM | –
CC(C)(NC(=O)OCc1ccccc1)C(=O)NC(Cc1ccccc1)C(=O)NN (stereo unspecified) (Cbz-[Aib]-[ξF]-NHNH2) | > 200 µM | > 200 µM | –
Cc1cc(C2CC(O)C(CO)O2)c(F)cc1F (stereo unspecified) | > 200 µM | > 200 µM | –
O=[N+]([O-])c1ccc(C(Cl)C(Cl)c2ccc(C(Cl)C(Cl)c3ccc([N+](=O)[O-])cc3[N+](=O)[O-])cc2)c([N+](=O)[O-])c1 (stereo unspecified) | > 12 µM | 5.13 µM | –
CC(=O)N(O)CCCCCNC(=O)CCC(=O)N(O)CCCCCNC(=O)CCC(=O)N(O)CCCCCN | > 110 µM | 4.57 µM and 3.63 µM | –
CC1=NC(=O)CNN1C1=NNC2(C(=O)N1)c1ccccc1-c1ccccc12 | > 100 µM | > 100 µM | –
CNC(=O)SC1=NS(=O)(=O)c2ccc(Cl)cc2N1 | 51.3 µM | 186 µM | –
O=C1NC(=O)C(CN2C(=O)/C(=C/c3cccc(O)c3)SC2=S)C(=O)N1 | > 200 µM | 91.2 µM | –
CCOC(=O)/C(N=Nc1ccc(-n2c(C)nc3ccccc3c2=O)cc1)=C(/C)O | > 200 µM | 151 µM | –
COc1ccc(C2C3=C(COC3=O)OC(C)(C)Oc3cc4c(cc32)OCO4)cc1OC (stereo unspecified) | > 200 µM | 12.3 µM | –
O=S(=O)(O)CCCO | > 200 µM | > 200 µM | –

Compound | EC50 | IC50 | outcome
COc1ccc(NC(=S)Nc2cccc(C)n2)cc1 | > 200 µM | > 200 µM | –
O=C(Nc1cc(C(F)(F)F)ccc1Cl)C(=O)C(C(=O)c1ccc2ccccc2c1)C1OC(=O)c2ccccc21 (stereo unspecified) | > 33.9 µM | 18.6 µM | –
CCCNC(=O)N(CC(C)C)S(=O)(=O)c1ccc(Cl)cc1 | – | – | inactive
COc1ccc(/C=C(\C#N)c2ccc([N+](=O)[O-])cc2)cc1[N+](=O)[O-] | 182 µM | 195 µM | –
CCc1cccc(C(C)C)c1NC(=O)C(=O)Nn1c(=S)[nH]c2ccccc2c1=O | > 123 µM | > 123 µM | –
CCOC(=O)C12C3C(=O)N(CC)C(=O)C3ON1OC1C(=O)N(CC)C(=O)C12 (stereo unspecified) | > 661 µM | 81.3 µM | –
CC(C)(C)C1=NO[C@H]2[C@@H](NC(=O)c3ccccc3)CC[C@@H]12 | > 871 µM | 302 µM | –
CCC[CH2][Sn]([CH2]CCC)([O]C(=O)c1cccc(F)c1F)[O]C(=O)c1cccc(F)c1F | > 9.55 µM | 3.55 µM | –
C[C@]1(CI)OC(=O)N2CCC[C@H]21 | > 891 µM | > 891 µM | –
CCOC(=O)CC(=O)C(=O)NNC1=NCCN1 | > 200 µM | > 200 µM | –
CCOC(=O)/C(C#N)=C/c1c[nH]c2ccccc12 | > 200 µM | 158 µM | –
c1cnc2c(c1)-n1cccc1C1(CCSCC1)NN2 | > 60.3 µM | > 60.3 µM | –
COc1cnc([C@H]2CCC3[C@@H]4CC=C5C[C@@H](OC(C)=O)CC[C@]5(C)C4CC[C@@]32C)s1 (stereo partly specified) | > 21.9 µM | > 21.9 µM | –
O=C1/C(=C\c2ccc(Cl)cc2Cl)Sc2scc(-c3ccc(O)c(O)c3)[n+]21 | > 200 µM | 6.31 µM | –
COc1ccc(-c2ccccc2)cc1SSc1cc(-c2ccccc2)ccc1OC | > 200 µM | 178 µM | –
COc1ccc(N2C(=O)C3c4[nH]c5ccccc5c4C4CCCCCCCCCCC4C3C2=O)cc1 (stereo unspecified) | > 5.62 µM | > 5.62 µM | –
Cc1ccc2c(c1)nc(N)n[n+]2[O-] | > 100 µM | > 100 µM | –
COC(=O)CC[N+]1([O-])CC1 | > 200 µM | > 200 µM | –
CCOC(=O)CN1C(=O)Cc2ccccc21 | > 200 µM | 97.7 µM | –
Cc1ccc(S(=O)(=O)N/N=C/C=N/NS(=O)(=O)c2ccc(C)cc2)cc1 | – | – | inactive
O=C1CC(=O)NC(=NN2C(=O)CSC2C(=O)c2ccco2)N1 (stereo unspecified) | 35.5 µM | 575 µM | –
CC1CCCOc2ccc(cc2)C=Nc2ccc(cc2)CCc2ccc(cc2)N=Cc2ccc(cc2)OCCC1 (stereo unspecified) | > 200 µM | > 200 µM | –
